Test results as given in US20130014428A1, “METHODS OF MONITORING AND CONTROLLING THE WALNUT TWIG BEETLE, PITYOPHTHORUS JUGLANDIS” (The United States of America as Represented by the …, priority 2011, published 2013).

How the values were obtained:
[1] = test system: walnut twig beetle (WTB), Pityophthorus juglandis; experiment: Example 1 Field Test 2: flight response to X with and without racemic conophthorin; type: in vivo; settings: yellow sticky card traps, Davis CA
Experimental: (§1) Field Bioassays of Semiochemicals. To test the attractiveness of the various compounds of interest, some of the commercially available materials listed above were poured into 15 ml capped polyethylene bottles (Product #s A1-1050/002, A1-1055/002; Contech Enterprises Inc., Delta, British Columbia, Canada) and attached to yellow sticky card traps (Trécé, Adair, OK). In addition, synthesized (+) and (−) enantiomers of trans-conophthorin were tested in 400 μl polyethylene Eppendorf microcentrifuge tubes. Four field studies were conducted (Table 2) that tested the flight responses to: 3-methyl-2-buten-l-ol and related isomers (Field Test 1); 3-methyl-2-buten-l-ol with and without racemic trans-conophthorin (Field Test 2); 3-methyl-2-buten-l-ol with and without the purified enantiomers of trans-conophthorin (Field Test 3); and 3-methyl-2-buten-l-ol with and without racemic chalcogran (Field Test 4).
(§2) Statistical Analysis. Field Tests 1-4 were each analyzed for treatment effect by using Friedman's non-parametric analysis of variance. (See Zar, J. H. 2010. Biostatistical Analysis, 5th Ed. Pearson Prentice Hall, New Jersey). Males and females were subjected to separate analyses. All treatments within experiments yielding a significant treatment effect were compared by using an a posteriori Nemenyi test (Zar 2010) with experimentwise α=0.05. Sex ratios of responding WTB were determined using Cochran's method for unbiased sampling (See Cochran, W. G. 1977. Sampling Techniques, 3rd ed. John Wiley, New York), with 95% confidence intervals calculated by using the Clopper-Pearson method. (See Zar, J. H. 2010. Biostatistical Analysis, 5th Ed. Pearson Prentice Hall, New Jersey).

[2] = test system: walnut twig beetle (WTB), Pityophthorus juglandis; experiment: Example 1 Field Test 4: flight response to X with and without racemic chalcogran; type: in vivo; settings: yellow sticky card traps, Davis CA
Experimental: as §1, §2

WTB [3] = experiment: Example 2 Field Test 1: X in combination with X-3 and X-2; type: in vivo, Pityophthorus juglandis; settings: 4-unit Lindgren funnel traps
Experimental: Field Bioassays of 3-methyl-2-buten-1-ol in combination with other compounds. The flight response of WTB to 3-methyl-2-buten-1-ol in combination with other compounds was also tested. […] Louis, Mo. […] The five treatments were replicated in three spatial blocks and the treatments were re-randomized among the five trap stations in a block each time the traps were emptied (nearly every day). [table] Statistical Analyses. Analysis of treatment effects for the pouch vs. bottle experiment was done by using a sign test. (See Zar, J. H. 2010. Biostatistical Analysis. 5th ed. Pearson Prentice Hall, Englewood Cliffs, N.J.) The other four experiments were analyzed for treatment effect by using Friedman's non-parametric analysis of variance. Id. In all experiments, males and females were analyzed separately. All treatments within experiments yielding a significant treatment effect were compared by using an a posteriori Nemenyi test with experimentwise α=0.05. Id. For all experiments, differences among proportions of female WTB responding to treatments were analyzed by comparing 95% confidence intervals determined with the Clopper-Pearson method. Id.

WTB [4] = experiment: Baited vs unbaited funnel trap pairs in Tennessee and Virginia; type: in vivo, Pityophthorus juglandis; settings: 15-80 mg/d
Experimental: The efficacy of the WTB trap bait as a detection tool was tested across the United States for a range of populations of the beetle that might be biologically heterogeneous and may occur at various densities in the landscape. The information learned from these trials was instrumental in preparing the national trapping guidelines for walnut twig beetle. […] For each state, trapping was performed in areas of known WTB infestation as well as nearby localities where WTB had not been previously detected. […]
To compare the effectiveness of the bait in the eastern range of WTB, pairs of baited and unbaited traps were located in Tennessee (3 pairs, 10 repeated measures for each pair) and Virginia (4 pairs, 12 repeated measures for each pair). […] Trap catch data were analyzed with a sign test. […]

[5] = about one month late spring, N=16
[6] = about one month late summer, N=13
[7] = X 15-60 mg/d, X-3 and X-2 1.76 mg/d, N=42

## CC(C)=CCO [X, 3-methyl-2-buten-1-ol]
[1]
  proportion of females responding: 0.65
[1]; [5]
  trap catches, female WTB: 459
  trap catches, male WTB: 250
[2]
  proportion of females responding: 0.69
[2]; [6]
  trap catches, female WTB: 94
  trap catches, male WTB: 43
WTB [3]
  proportion of females responding: 0.77
WTB [3]; [7]
  trap catches, female WTB: 636
  trap catches, male WTB: 193
WTB [4]; Tennessee, 4-unit funnel traps, N=30
  WTB detected at baited traps: 19.1 WTB/trap/week
WTB [4]; Virginia, 12-unit funnel traps, N=48
  WTB captured in baited traps: 42.3 WTB/trap/week
